Experiment [1] relates to PDRE-dependent luciferase gene transcription. The class given is cell-based, Saccharomyces cerevisiae. Particulars: 40 μM ketoconazole; for Luciferase activity (5 μM + keto) (% DMSO + keto): 5 μM compound; for Luciferase activity (50 μM + keto) (% DMSO + keto): 50 μM compound.
Experiment [2] deals with Candida tropicalis DSY472. The experiment in a line: Broth dilution MIC. Particulars: ATCC75. On the technique in general: Broth dilution looks for growth in wells or tubes with falling amounts of substance.
Protocol: (§1) Antifungal susceptibility testing was carried out using broth dilution assays which examined effects of two-fold dilutions of compounds on cellular growth. The minimum inhibitory concentration (MIC) was defined as the drug concentration at which the optical density was equal to or decreased more than 50% from that of the drug-free culture.
For experiment [3], the system named is Candida glabrata DSY562. Kind of experiment: Broth dilution MIC. Particulars: Nakaseomyces glabratus.
Protocol: as §1
Experiment [4] deals with Candida albicans DSY2621. Kind of experiment: Broth dilution MIC.
Protocol: as §1
Experiment [5] has as its system Saccharomyces cerevisiae DSY2094. Kind of experiment: Broth dilution MIC.
Protocol: as §1
The subject of experiment [6] is Candida parapsilosis DSY473. The experiment in a line: Broth dilution MIC. Particulars: ATCC22019.
Protocol: as §1
Experiment [7] has as its system Candida krusei DSY471. The experiment in a line: Broth dilution MIC. Particulars: Pichia kudriavzevii, ATCC6258.
Protocol: as §1
The test system of experiment [8] is Candida albicans SC5314. Kind of experiment: Broth dilution MIC.
Protocol: as §1
Experiment [9] concerns Candida glabrata DSY565. The experiment in a line: Broth dilution MIC. Particulars: Nakaseomyces glabratus.
Protocol: as §1
For experiment [10], the target named is T1, CgGal11A KIX domain (Candida glabrata, UniProt Q6FRS9).
T1 construct: other: compared with iKIX1; other: GST-CgGal11A KIX 3 μM, 30 nM FITC-CgPdr1 AD30; Kd of CgPdr1 AD30 for CgGal11A KIX domain; other: FP titration, 30 nM FITC-CgPdr1 AD30; Kd of the CgPdr1 AD for the CgGal11A KIX domain; apparent Ki; fused on or other part: N-terminal His6-GST tag
T1 sequence (Q6FRS9 whole entry, looked up, the tested form may be a part): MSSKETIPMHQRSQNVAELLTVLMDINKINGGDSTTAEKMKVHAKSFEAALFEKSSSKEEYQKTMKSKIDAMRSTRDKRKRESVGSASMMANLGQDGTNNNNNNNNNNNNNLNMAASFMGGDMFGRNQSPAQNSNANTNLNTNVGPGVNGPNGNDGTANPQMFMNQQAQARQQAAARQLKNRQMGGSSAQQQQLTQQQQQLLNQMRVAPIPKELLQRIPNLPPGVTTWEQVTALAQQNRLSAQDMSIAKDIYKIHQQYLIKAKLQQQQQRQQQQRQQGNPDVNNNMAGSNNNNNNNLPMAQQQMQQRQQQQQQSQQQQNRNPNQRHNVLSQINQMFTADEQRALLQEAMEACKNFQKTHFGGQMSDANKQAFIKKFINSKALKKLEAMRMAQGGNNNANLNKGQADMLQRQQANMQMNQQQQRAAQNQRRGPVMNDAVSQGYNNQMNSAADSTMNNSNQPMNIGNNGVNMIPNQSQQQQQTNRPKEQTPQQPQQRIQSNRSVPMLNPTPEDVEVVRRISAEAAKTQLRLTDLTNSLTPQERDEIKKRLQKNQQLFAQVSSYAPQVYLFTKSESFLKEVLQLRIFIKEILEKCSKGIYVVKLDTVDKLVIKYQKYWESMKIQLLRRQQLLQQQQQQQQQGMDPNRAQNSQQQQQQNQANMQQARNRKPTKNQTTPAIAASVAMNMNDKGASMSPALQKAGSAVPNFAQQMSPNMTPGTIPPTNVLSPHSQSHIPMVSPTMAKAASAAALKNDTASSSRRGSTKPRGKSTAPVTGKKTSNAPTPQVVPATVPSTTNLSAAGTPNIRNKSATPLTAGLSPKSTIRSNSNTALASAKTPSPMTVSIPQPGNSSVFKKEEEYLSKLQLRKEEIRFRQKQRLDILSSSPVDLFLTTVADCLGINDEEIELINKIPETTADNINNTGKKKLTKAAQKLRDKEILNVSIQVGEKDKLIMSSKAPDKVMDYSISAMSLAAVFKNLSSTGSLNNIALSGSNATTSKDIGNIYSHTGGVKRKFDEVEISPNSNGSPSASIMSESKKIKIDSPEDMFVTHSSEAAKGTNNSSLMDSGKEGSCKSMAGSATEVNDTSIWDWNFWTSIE
Kind of experiment: Fluorescence polarization (FP) binding/competition assay, CgPdr1 AD30 with CgGal11A KIX. Particulars: compared with iKIX1. As for the experimental part:
A fluorescein-tagged 30 amino acid C-terminal activation domain of CgPdr1 (FITC-[…] (SEQ ID NO: 1)) CgPdr1 AD30 was purchased as a synthetic peptide from Pepide2.0. The CgGal11A KIX domain was expressed as a His6-GST fusion protein and purified by affinity chromatography with Ni-NTA resin (Qiagen) and size exclusion chromatography (Sephadex 75, Pharmacia). […] For small molecule screening, fluorescein-CgPdr1 AD30 was held at a concentration of 30 nM and the GST-tagged CgGal11A KIX was at a concentration of 1 μM (above the Kd). The screen was carried out in duplicate and the volume in each well was 25 μL.
To measure the dissociation constant (Kd) of CgPdr1 AD30, FITC labeled CgPdr1 AD30 was held at a concentration of 30 nM and the GST-tagged CgGal11A KIX was prepared with concentrations ranging from 0 to 300 μM. The IC50 for iKIX-1 binding was measured with GST-tagged CgGal11A KIX held at a constant 3 μM concentration, iKIX-1 was titrated from 0 to 1000 μM and 30 nM FITC-labeled CgPdr1 AD30 was added subsequently with an HP D300 digital dispenser (Tecan Group. Maennerdorf, Switzerland). All experiments were carried out in duplicate and the s.d. is reported at each point on the plot.
The FP titration curve of the CgPdr1 AD30 was fitted to GraphPad Prisms (La Jolla, Calif., USA) One site-total binding equation (equation 1). […]
In general terms: In fluorescence polarisation assays a small probe gives low polarisation when free and higher when bound to something large.

For experiment [11], the system named is C. glabrata CgPDR1 wild-type and gain-of-function mutant strains. The experiment in a line: Spot plating on gradient plates with azole. The experiment is classed as cell-based, Candida glabrata.
Experiment [12] has as its system CgCDR1 transcription (CgPdr1 target). The experiment in a line: Transcription assay, quantitative real-time PCR of CgPdr1 target genes. The class given is cell-based, Candida glabrata. (In general: Quantitative PCR measures a nucleic acid by following its amplification.)
For experiment [13], the system named is C. glabrata adherence to CHO-Lec2 cells. The experiment in a line: Yeast adherence to epithelial CHO-Lec2 cells. Particulars: PDR1^L280F mutant, 30 μM iKIX1 or 40 μM ketoconazole.
Experiment [14] relates to C. glabrata PDR1 wild-type or PDR1^L280F strains. The experiment in a line: Galleria mellonella survival assay. The class given is in vivo. Particulars: […].
In experiment [15] the test system is C. glabrata. The experiment in a line: Mouse disseminated fungal burden model. The class given is in vivo. Particulars: mouse, in vivo.
The test system of experiment [16] is C. glabrata. The experiment is classed as in vivo, mouse. Particulars: single agent 100 mg/kg/day i.p.

17 molecules from patent US11136291B2, “Antifungal compounds and uses thereof” (Dana-Farber Cancer Institute, Inc., priority 2016, dated 2021) can be followed below.

≈ marks a conversion by molar mass, not a printed value.

Turning to `N#CCC(=O)NNC(=S)Nc1ccc(C(F)(F)F)c(Cl)c1` [drawing 47], in [1], the “Luciferase activity (5 μM + keto) (% DMSO + keto)” value stood at 40 % DMSO + keto and the “Luciferase activity (50 μM + keto) (% DMSO + keto)” value turned out to be 21 % DMSO + keto.

Consider `N#CC(C(=O)NNC(=S)Nc1ccc(Cl)c(Cl)c1)c1ccccc1` (stereo not drawn), for which, in [1], the “Luciferase activity (5 μM + keto) (% DMSO + keto)” value worked out at 86 % DMSO + keto and the “Luciferase activity (50 μM + keto) (% DMSO + keto)” value is listed as 38 % DMSO + keto.

The term MIC denotes the least concentration at which growth counts as inhibited. Low values mean a more susceptible organism, high ones a less susceptible organism. Take `N#CCC(=O)NNC(=S)Nc1ccc(C(F)(F)F)c(Cl)c1` [Compound A07, N-(3-Chloro-4-(trifluoromethyl)phenyl)-2-(2-cyanoacetyl) hydrazinecarbothioamide]: the MIC in experiment [2] is 3.25 µM (≈ 1.09 µg/mL); in experiment [3], 3.12 µM (≈ 1.05 µg/mL); in [4], 3.25 µM (≈ 1.09 µg/mL); in experiment [5], 3.12 µM (≈ 1.05 µg/mL); in experiment [6], 6.25 µM (≈ 2.1 µg/mL); in experiment [7] it was 6.25 µM (≈ 2.1 µg/mL). Besides, the figures for the MIC in experiment [8] and in [9] were 3.25 µM (≈ 1.09 µg/mL) and 3.12 µM (≈ 1.05 µg/mL), respectively.

In the case of `N#CCC(=O)NNC(=S)Nc1cc(Cl)cc(Cl)c1` [Compound A16], the MIC was 3.25 µM (≈ 0.985 µg/mL) in [2]; 3.12 µM (≈ 0.947 µg/mL) in [3]; 6.25 µM (≈ 1.89 µg/mL) in experiment [4]; 3.12 µM (≈ 0.947 µg/mL) in experiment [5]; 12.5 µM (≈ 3.79 µg/mL) in experiment [6]; 3.25 µM (≈ 0.985 µg/mL) in experiment [7]. The MIC in [8] and in experiment [9] was 6.25 µM (≈ 1.89 µg/mL) each time.

With `N#CCC(=O)NNC(=S)NCc1ccccc1` [Compound A02, reference compound], the “IC50 in the FP assay (in words)” value in [10] is “increases the IC50”. For the same molecule, the “ketoconazole-induced luciferase activity (in words)” value in [1] is “abolishes activity”. For the same molecule, the MIC in [2], in [3], in experiment [4], in experiment [5], in [6] and in experiment [7] was above 100 µM throughout. The minimal inhibitory concentration (MIC) in [8] and in experiment [9] was above 100 µM each time. Also, the “synergistic C. glabrata cell growth inhibition with azole antifungal agents” value in experiment [11] is “abolishes activity”. In addition, the “ketoconazole-induced CgPdr1 target gene (CgCDR1) transcription (in words)” value in [12] (CgPDR1 wild-type strain (SFY114), pre-treatment then 40 μM ketoconazole) is recorded as “abolishes activity”.

For `N#CCC(=O)NNC(=S)Nc1ccc(Cl)c(F)c1` [drawing 46], in experiment [1], the “Luciferase activity (5 μM + keto) (% DMSO + keto)” value is 54 % DMSO + keto and the “Luciferase activity (50 μM + keto) (% DMSO + keto)” value is recorded as 30 % DMSO + keto.

For `N#CC1(C(=O)NNC(=S)Nc2ccc(Cl)c(Cl)c2)CC1` [drawing 45], in experiment [1], the “Luciferase activity (5 μM + keto) (% DMSO + keto)” value came out at 62 % DMSO + keto and the “Luciferase activity (50 μM + keto) (% DMSO + keto)” value is listed as 25 % DMSO + keto. Also, in experiment [12] (30 μM compound, PDR1 WT, ketoconazole induced), the “CgCDR1 qRT-PCR (30 μM in PDR1 WT) (% DMSO + keto)” value is given as 5 % DMSO + keto.

In the case of `N#CCC(=O)NNC(=S)Nc1cc(Cl)cc(C(F)(F)F)c1` [drawing 49], in experiment [1], the “Luciferase activity (5 μM + keto) (% DMSO + keto)” value came to 77 % DMSO + keto and the “Luciferase activity (50 μM + keto) (% DMSO + keto)” value is 28 % DMSO + keto.

In the case of `CC(=O)N1CCN(c2ccc(OCC3COC(Cn4ccnc4)(c4ccc(Cl)cc4Cl)O3)cc2)CC1` (stereo not drawn) [ketoconazole, reference compound], the “relative adherence to epithelial cells” value is given as “reduce adherence” in experiment [13] and “reduced relative adherence to levels comparable to a PDR1 wild-type strain” in experiment [13] (listed as Ketoconazole).

As for `COc1cc(NC(=S)NNC(=O)CC#N)cc(Cl)c1Cl`, in [1], the “Luciferase activity (5 μM + keto) (% DMSO + keto)” value amounted to 52 % DMSO + keto and the “Luciferase activity (50 μM + keto) (% DMSO + keto)” value is listed as 26 % DMSO + keto.

Turning to `N#CC1(C(=O)NNC(=S)Nc2ccc(Cl)c(Cl)c2)CCCCC1` [drawing 51], in experiment [1], the “Luciferase activity (5 μM + keto) (% DMSO + keto)” value was 53 % DMSO + keto and the “Luciferase activity (50 μM + keto) (% DMSO + keto)” value was found to be 14 % DMSO + keto.

For the molecule `N#CCC(=O)NNC(=S)Nc1cc(Cl)cc(Cl)c1` [drawing 48], in experiment [1], the “Luciferase activity (5 μM + keto) (% DMSO + keto)” value was determined as 45 % DMSO + keto and the “Luciferase activity (50 μM + keto) (% DMSO + keto)” value is reported as 25 % DMSO + keto.

As to `N#CCC(=O)NNC(=S)Nc1cc(Cl)cc(C(F)(F)F)c1` [Compound A52-8], the MIC in [2] stood at 3.12 µM (≈ 1.05 µg/mL); in [3], 3.12 µM (≈ 1.05 µg/mL); in experiment [4], 3.12 µM (≈ 1.05 µg/mL); in [5] it was 3.12 µM (≈ 1.05 µg/mL); in experiment [6], 12.5 µM (≈ 4.21 µg/mL); in [7] it was 3.12 µM (≈ 1.05 µg/mL). Also, the MIC was determined as 3.12 µM (≈ 1.05 µg/mL) in [8] and 6.25 µM (≈ 2.1 µg/mL) in experiment [9].

For `N#CC1(C(=O)NNC(=S)Nc2ccc(Cl)c(Cl)c2)CCCCC1` [DFCI-1], the MIC in experiment [2] is 6.25 µM (≈ 2.32 µg/mL); in experiment [3], 6.25 µM (≈ 2.32 µg/mL); in experiment [4], 12.5 µM (≈ 4.64 µg/mL); in experiment [5] it was 6.25 µM (≈ 2.32 µg/mL); in [6] it was 12.5 µM (≈ 4.64 µg/mL); in [7] it was 3.12 µM (≈ 1.16 µg/mL). Also, the MIC in [8] and in experiment [9] was 6.25 µM (≈ 2.32 µg/mL) in each case.

Regarding `N#CC1(C(=O)NNC(=S)Nc2ccc(Cl)c(Cl)c2)CC1` [Compound A18, 2-(1-Cyanocyclopropanecarbonyl)-N-(3,4-dichlorophenyl)hydrazinecarbothioamide], the MIC was found to be 12.5 µM (≈ 4.12 µg/mL) in [2]; 6.25 µM (≈ 2.06 µg/mL) in [3]; 6.25 µM (≈ 2.06 µg/mL) in [4]; 12.5 µM (≈ 4.12 µg/mL) in [5]; 25 µM (≈ 8.23 µg/mL) in [6]; 6.25 µM (≈ 2.06 µg/mL) in [7]. Besides, the MIC in experiment [8] turned out to be 6.25 µM (≈ 2.06 µg/mL); in experiment [9], 12.5 µM (≈ 4.12 µg/mL).

As for `OC(Cn1cncn1)(Cn1cncn1)c1ccc(F)cc1F` [fluconazole, reference compound], the “survival of G. mellonella larvae” value is on record as “sensitive to fluconazole alone” in [14] (fluconazole 50 mg/kg alone) and “did not significantly increase survival” in [14] (single agent (fluconazole 50 mg/kg or iKIX1 25 mg/kg) vs vehicle). For the same molecule, in experiment [15] (25 mg/kg), the tissue fungal burden entry was “poorly reduced tissue burden”. The “tissue fungal burden in the kidney and spleen” value in experiment [15] (100 mg/kg) is reported as “significantly reduced tissue fungal burden”. Further, the “fungal load in bladder and kidney” value in experiment [16] was “significantly reduces fungal burden in the bladder and kidney”.

Take `N#CCC(=O)NNC(=S)Nc1ccc(Cl)c(F)c1` [Compound A03, N-(4-Chloro-3-fluorophenyl)-2-(2-cyanoacetyl)hydrazinecarbothoamide]: the MIC in [2] worked out at 12.5 µM (≈ 3.58 µg/mL); in experiment [3], 12.5 µM (≈ 3.58 µg/mL); in experiment [4] it was 25 µM (≈ 7.17 µg/mL); in experiment [5], 12.5 µM (≈ 3.58 µg/mL); in [6], 50 µM (≈ 14.3 µg/mL); in [7], 12.5 µM (≈ 3.58 µg/mL). Further, the MIC in [8] and in experiment [9] was 25 µM (≈ 7.17 µg/mL) throughout.
